Counter-ions that a name gives are not always drawn.
Key:
[1] = plasma pharmacokinetics after i.p. administration; assay type: in vivo; settings: rat, mean ± SD
Wistar rats [2] = assay: food-maintained responding; settings: food-restricted rats, 1 h session
Wistar rats [3] = assay: cue-induced reinstatement of food-seeking behavior; settings: food-responding rats; 10, 20, 40 mg/kg i.p., between-subjects
Wistar rats [4] = assay: intravenous cocaine self-administration, short; settings: for inactive lever presses: cocaine self-administration; for cocaine self-administration (infusions earned, % of baseline): 30 min pretreatment, vs vehicle
rat mGluR3 = rat mGluR3 (Rattus norvegicus, UniProt P31422); assay: thallium flux assay, mGluR3 GIRK HEK-293 cells; assay type: cell-based; settings: in presence of EC20 glutamate
rat mGluR3, sequence (P31422 23-879): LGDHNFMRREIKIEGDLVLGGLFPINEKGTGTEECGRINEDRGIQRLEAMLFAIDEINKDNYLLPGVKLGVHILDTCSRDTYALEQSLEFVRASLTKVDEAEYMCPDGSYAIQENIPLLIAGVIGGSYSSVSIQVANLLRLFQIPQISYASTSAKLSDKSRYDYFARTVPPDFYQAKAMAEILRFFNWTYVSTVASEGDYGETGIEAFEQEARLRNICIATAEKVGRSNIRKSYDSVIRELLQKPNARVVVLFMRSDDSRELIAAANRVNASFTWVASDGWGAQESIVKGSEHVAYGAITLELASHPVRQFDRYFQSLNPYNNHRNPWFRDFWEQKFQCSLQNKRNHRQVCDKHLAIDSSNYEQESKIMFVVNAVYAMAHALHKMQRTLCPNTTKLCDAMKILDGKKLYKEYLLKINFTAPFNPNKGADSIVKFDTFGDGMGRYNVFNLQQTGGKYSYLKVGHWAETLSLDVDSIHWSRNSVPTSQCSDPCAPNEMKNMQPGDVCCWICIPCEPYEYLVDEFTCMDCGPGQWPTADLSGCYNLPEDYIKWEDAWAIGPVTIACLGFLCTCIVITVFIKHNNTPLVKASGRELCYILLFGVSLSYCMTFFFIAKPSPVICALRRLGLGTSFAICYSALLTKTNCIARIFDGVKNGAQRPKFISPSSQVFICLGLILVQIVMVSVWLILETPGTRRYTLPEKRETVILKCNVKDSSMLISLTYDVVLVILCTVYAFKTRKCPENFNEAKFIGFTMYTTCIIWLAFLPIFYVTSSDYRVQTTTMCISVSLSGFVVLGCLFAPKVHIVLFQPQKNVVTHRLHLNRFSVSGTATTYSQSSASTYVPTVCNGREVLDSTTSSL

Wistar rats [5] = assay: intracranial self-stimulation; assay type: in vivo, rat
Wistar rats [6] = assay: cue-induced reinstatement of cocaine-seeking behavior
[7] = brain and plasma levels 1 h after administration; assay type: in vivo; settings: rat, geometric mean (lower – upper limits)
ShA rats = settings: 3 mg/kg, ref Baptista et al 2004; cited from earlier work

Cc1c(OCc2cccc(-c3ccc(C(=O)[O-])cc3)c2)cc2c(c1C)C(=O)C(C1CCCC1)C2.[K+] (centres unmarked) [BINA, potassium 3′-([2-cyclopentyl-6-7-dimethyl-1-oxo-2,3-dihydro-1H-inden-5yloxy]methyl)biphenyll-4-carboxylate]
AUC ([1]; 20 mg/kg i.p.): 31 ± 5.0 h μM/L | Cmax ([1]; 20 mg/kg i.p.): 9.3 ± 2.7 µM | Vd ([1]; 20 mg/kg i.p.): 5.9 ± 2.6 L/kg | AUC ([1]; 40 mg/kg i.p.): 114 ± 42 h μM/L | Cmax ([1]; 40 mg/kg i.p.): 31 ± 14 µM | Vd ([1]; 40 mg/kg i.p.): 1.7 ± 0.68 L/kg | food-maintained responding (Wistar rats [2]; 10, 20, 40 mg/kg i.p.): no effect on food responding | cue-induced food seeking (active lever presses) (Wistar rats [3]): no effect on the number of active lever presses | inactive lever presses (Wistar rats [4]; 10, 20, 40 mg/kg i.p.): no effect on inactive lever presses | potentiation of the glutamate EC20 response (rat mGluR3): inactive | cocaine-induced decrease in ICSS response latencies (Wistar rats [5]; 20 mg/kg i.p. combined with cocaine 10 mg/kg i.p.): reversed the cocaine-induced decrease in response latencies | ICSS response latencies (Wistar rats [5]; 40 mg/kg i.p. vs vehicle): significantly increased | cocaine-induced ICSS threshold lowering (Wistar rats [5]; 20 and 40 mg/kg i.p. combined with cocaine 10 mg/kg i.p.): attenuated cocaine-induced threshold lowering | ICSS reward thresholds (Wistar rats [5]; administered alone, 20 and 40 mg/kg i.p.): significantly elevated reward thresholds | active lever presses in reinstatement sessions (Wistar rats [6]; non-reinstated sub-groups of ShA and LgA rats (median split), 10-40 mg/kg i.p.): no effect of BINA treatment | cue-induced reinstatement of cocaine-seeking behavior (Wistar rats [6]; three ShA rats reinstating by predefined criterion): tended to reduce cue-induced reinstatement | Brain level (mean) ([7]; 20 mg/kg): 2.78 (0.65 – 6.39) μM | Plasma level (mean) ([7]; 20 mg/kg): 10.54 (0.79 – 25.48) μM | Brain level (mean) ([7]; 40 mg/kg): 2.30 (0.62 – 5.54) μM | Plasma level (mean) ([7]; 40 mg/kg): 7.79 (0.81 – 16.98) μM

COC(=O)[C@H]1[C@@H](OC(=O)c2ccccc2)C[C@@H]2CC[C@H]1N2C [Cocaine, Cocaine hydrochloride, reference compound]
ICSS reward thresholds (Wistar rats [5]; 10 mg/kg i.p., co-administered with vehicle or 10 mg/kg BINA): significantly lowered ICSS thresholds

N[C@@]1(C(=O)O)CO[C@H]2[C@H](C(=O)O)[C@H]21 [LY379268, [−]-2-oxa-4-aminobicyclo[3.1.0]hexane-4,6-dicarboxylate]
cocaine self-administration (ShA rats): decreased cocaine self-administration | food-maintained responding (Wistar rats [2]; 6 mg/kg): significantly decreased food responding | cocaine self-administration (infusions earned, % of baseline) (Wistar rats [4]; LgA rats, 6 h session and first hour, 6 mg/kg): significant decrease in cocaine intake | cocaine self-administration (infusions earned, % of baseline) (Wistar rats [4]; ShA rats, 1 h session, 3 and 6 mg/kg): significant decrease in cocaine intake | inactive lever presses (Wistar rats [4]; 0.3, 1, 3, 6 mg/kg): no effect on inactive lever presses

Source: paper PMC2922422 (Neuropsychopharmacology : official publication of the …, 2010)
